Measured values as given in paper PMC10447463, “Data-mining unveils structure–property–activity correlation of viral infectivity enhancing self-assembling peptides” (Nature Communications, 2023).
Like-named read-outs stand apart in the source and are kept apart here.

Tests used:
[1] = tested on: HIV-1 infection of TZM-bl cells; assay: HIV-1 infectivity enhancement assay, β-galactosidase luminescence; format: cell-based; conditions: for Rel-EFC / Log10 Infection Rel EFC: 1.3 µM peptide; for Rel-EFC: infection relative to EF-C (QCKIKQIINMWQ = 1); for Log10 Infection Rel EFC: log10 of infection relative to EF-C; for Log Infectivity: Fig. S7 panel A (plotted against β-sheet content), Log10 infection relative to EF-C, TZM-bl cells, asymmetric std dev errors; for Log10 Infection Rel EF-C: HIV-1 infection of TZM-bl cells; for Log10 of Rel to EFC (Feb2021): Log10 of infection relative to EF-C, all peptides of FigS16; for Abs. Inf.: absolute infection signal, HIV-1 on TZM-bl cells, β-galactosidase luminescence; for Log10 Inf. rel. to EF-C: log10 of HIV-1 infection of TZM-bl cells relative to EF-C (EF-C = 0)
[2] = format: physicochemical; conditions: for ThT Cat. / ThT-Fluorescence (categorical): ThT-active if fluorescence at least twice the control
How it was run: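 Preformed peptide fibrils (1 mg/mL) mixed with 50 µM ThT in PBS, 15 min at RT, fluorescence ex 440/em 488 nm versus PBS blank, triplicates. Zeta potential: peptides at 1 mg/mL in PBS pH 7.4, aged 1 d at RT, diluted in 1 mM KCl, Smoluchowski from electrophoretic mobility.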

[3] = β-sheet content by ATR-FT-IR; format: physicochemical; conditions: Fig. S7 panel A; β-sheet content by ATR-FT-IR
How it was run: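 β-sheet content came from ATR FT-IR spectra of lyophilized 1 mg/mL nanofibril solution (64 scans, 2 cm^-1 resolution). Conversion was measured by separating free monomer with a 3 kDa cutoff filter, then comparing fluorescamine fluorescence (ex 365/em 470 nm, 20 min RT) of filtrate versus unfiltered sample, in triplicate.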

[4] = Log10 of infection rate relative to EF-C, Figure 3A source data
[5] = infection rate relative to EF-C, log10, data of Figure 2D
[6] = infection rate relative to EF-C, log10, source data of Figure 2C

Q: Which Rel-EFC [1] does the source give for NMWQKFKFQF here?
A: The Rel-EFC was 0,27.

Q: What about the “Log10 Infection Rel EFC” value [1] of the same sequence?
A: The value was -0,57.

Q: What about the “Log Infectivity” value [1] of the same sequence?
A: Its value is -0.5672.

Q: What about the “Log10 Infection Rel EF-C” value [1, 4] of the same sequence?
A: The value was -0.57.

Q: And the “Log10 Infection Rel EF-C” value [1, 5]?
A: The value was -0.5672.

Q: And the “Log10 Infection Rel EF-C” value [1, 6]?
A: Its value is -0.5672.

Q: And the “Log10 of Rel to EFC (Feb2021)” value [1]?
A: The value was -0.57.

Q: What about the “Abs. Inf.” value [1] of the same sequence?
A: The value was 7323.

Q: And the “Log10 Inf. rel. to EF-C” value [1]?
A: Its value is -0.5672.

Q: What about the “Tht category (> 2 to blank = +)” value ([2]; Fig S10 panel D) of the same sequence?
A: The value was 0 (ThT-inactive (N-Fold <2)).

Q: And the “ThT Cat,” value ([2]; ThT category, 1 if Rel. ThT >2)?
A: The value was 0 (ThT-inactive (N-Fold <2)).

Q: What about the “ThT Cat.” value ([2]; ThT category, 1 if Rel. ThT >2) of the same sequence?
A: Its value is 0 (ThT-inactive (N-Fold <2)).

Q: And the “ThT Cat. / ThT-Fluorescence (categorical)” value (“ThT Cat. / ThT-Fluorescence” for short) [2]?
A: Its value is 0 (ThT-inactive (N-Fold <2)).

Q: What about the “b -sheet / %” value [3] of the same sequence?
A: Its value is 33.22%.

Q: For NMWQKIKIQI, which Rel-EFC [1] is on record?
A: Its Rel-EFC is 0,21.

Q: And the “Log10 Infection Rel EFC” value [1]?
A: Its value is -0,69.

Q: And the “Log Infectivity” value [1]?
A: The value was -0.6877.

Q: What about the “Log10 Infection Rel EF-C” value [1, 4] of the same sequence?
A: Its value is -0.69.

Q: What about the “Log10 Infection Rel EF-C” value [1, 5] of the same sequence?
A: Its value is -0.6877.

Q: What about the “Log10 Infection Rel EF-C” value [1, 6] of the same sequence?
A: Its value is -0.6877.

Q: And the “Log10 of Rel to EFC (Feb2021)” value [1]?
A: The value was -0.69.

Q: And the “Log10 Inf. rel. to EF-C” value [1]?
A: The value was -0.6877.

Q: And the “Tht category (> 2 to blank = +)” value ([2]; Fig S10 panel D)?
A: Its value is 1 (ThT. Cat is 1, if Rel. ThT >2).

Q: And the “ThT Cat,” value ([2]; ThT category, 1 if Rel. ThT >2)?
A: The value was 1 (ThT. Cat is 1, if Rel. ThT >2).

Q: And the “ThT Cat.” value ([2]; ThT fluorescence category, 1 if Rel. ThT >2)?
A: The value was 1 (ThT. Cat is 1, if Rel. ThT >2).

Q: And the “ThT Cat. / ThT-Fluorescence” value [2]?
A: The value was 1 (ThT. Cat is 1, if Rel. ThT >2).

Q: What about the “b -sheet / %” value [3] of the same sequence?
A: The value was 39.24%.

Q: Which Rel-EFC [1] does the source give for NMWQKIKQII here?
A: Its Rel-EFC is 0,03.

Q: What about the “Log10 Infection Rel EFC” value [1] of the same sequence?
A: Its value is -1,6.

Q: And the “Log Infectivity” value [1]?
A: The value was -1.5971.

Q: And the “Log10 Infection Rel EF-C” value [1, 4]?
A: The value was -1.6.

Q: What about the “Log10 Infection Rel EF-C” value [1, 5] of the same sequence?
A: The value was -1.5971.

Q: And the “Log10 Infection Rel EF-C” value [1, 6]?
A: The value was -1.5971.

Q: What about the “Abs. Inf.” value [1] of the same sequence?
A: Its value is 283.3.

Q: And the “Log10 Inf. rel. to EF-C” value [1]?
A: Its value is -1.5971.

Q: And the “Tht category (> 2 to blank = +)” value ([2]; Fig S10 panel D)?
A: Its value is 0 (ThT-inactive (N-Fold <2)).

Q: And the “Tht category (> 2 to blank = +)” value ([2]; FigS12 panel A)?
A: Its value is 0 (ThT-inactive (N-Fold <2)).

Q: And the “ThT Cat,” value ([2]; FigS12 panel B)?
A: Its value is 0 (ThT-inactive (N-Fold <2)).

Q: What about the “ThT Cat,” value ([2]; ThT category, 1 if Rel. ThT >2) of the same sequence?
A: The value was 0 (ThT-inactive (N-Fold <2)).

Q: What about the “ThT Cat.” value ([2]; ThT category, 1 if Rel. ThT >2) of the same sequence?
A: The value was 0 (ThT-inactive (N-Fold <2)).

Q: What about the “ThT Cat. / ThT-Fluorescence” value [2] of the same sequence?
A: Its value is 0 (ThT-inactive (N-Fold <2)).

Q: What about the “b -sheet / %” value [3] of the same sequence?
A: Its value is 38.14%.

Q: For NMWQKVGTPL, which Rel-EFC [1] is on record?
A: The Rel-EFC was 0,02.

Q: And the “Log10 Infection Rel EFC” value [1]?
A: The value was -1,61.

Q: And the “Log Infectivity” value [1]?
A: Its value is -1.607.

Q: And the “Log10 Infection Rel EF-C” value [1, 4]?
A: The value was -1.61.

Q: And the “Log10 Infection Rel EF-C” value [1, 5]?
A: The value was -1.607.

Q: What about the “Log10 Infection Rel EF-C” value [1, 6] of the same sequence?
A: Its value is -1.607.

Q: What about the “Abs. Inf.” value [1] of the same sequence?
A: Its value is 276.7.

Q: What about the “Log10 Inf. rel. to EF-C” value [1] of the same sequence?
A: The value was -1.607.

Q: What about the “Tht category (> 2 to blank = +)” value ([2]; Fig S10 panel D) of the same sequence?
A: Its value is 1 (ThT. Cat is 1, if Rel. ThT >2).

Q: What about the “Tht category (> 2 to blank = +)” value ([2]; FigS12 panel A) of the same sequence?
A: Its value is 1 (ThT. Cat is 1, if Rel. ThT >2).

Q: What about the “ThT Cat,” value ([2]; FigS12 panel B) of the same sequence?
A: Its value is 1 (ThT. Cat is 1, if Rel. ThT >2).

Q: What about the “ThT Cat,” value ([2]; ThT category, 1 if Rel. ThT >2) of the same sequence?
A: The value was 1 (ThT. Cat is 1, if Rel. ThT >2).

Q: And the “ThT Cat.” value ([2]; ThT category, 1 if Rel. ThT >2)?
A: The value was 1 (ThT. Cat is 1, if Rel. ThT >2).

Q: And the “ThT Cat. / ThT-Fluorescence” value [2]?
A: Its value is 1 (ThT. Cat is 1, if Rel. ThT >2).

Q: What about the “b -sheet / %” value [3] of the same sequence?
A: The value was 32.26%.

Q: With PPFHPPPFHP as the sequence, how does the Rel-EFC [1] read?
A: Its Rel-EFC is 0,02.

Q: What about the “Log10 Infection Rel EFC” value [1] of the same sequence?
A: Its value is -1,75.

Q: What about the “Log Infectivity” value [1] of the same sequence?
A: The value was -1.751.

Q: What about the “Log10 Infection Rel EF-C” value [1, 4] of the same sequence?
A: Its value is -1.75.

Q: What about the “Log10 Infection Rel EF-C” value [1, 5] of the same sequence?
A: The value was -1.751.

Q: And the “Log10 Infection Rel EF-C” value [1, 6]?
A: Its value is -1.751.

Q: And the “Abs. Inf.” value [1]?
A: The value was 263.3.

Q: What about the “Log10 Inf. rel. to EF-C” value [1] of the same sequence?
A: The value was -1.751.

Q: What about the “Tht category (> 2 to blank = +)” value ([2]; Fig S10 panel D) of the same sequence?
A: The value was 0 (ThT-inactive (N-Fold <2)).

Q: And the “Tht category (> 2 to blank = +)” value ([2]; FigS12 panel A)?
A: The value was 0 (ThT-inactive (N-Fold <2)).

Q: What about the “ThT Cat,” value ([2]; FigS12 panel B) of the same sequence?
A: The value was 0 (ThT-inactive (N-Fold <2)).

Q: What about the “ThT Cat,” value ([2]; ThT category, 1 if Rel. ThT >2) of the same sequence?
A: Its value is 0 (ThT-inactive (N-Fold <2)).

Q: And the “ThT Cat.” value ([2]; ThT category, 1 if Rel. ThT >2)?
A: The value was 0 (ThT-inactive (N-Fold <2)).

Q: And the “ThT Cat. / ThT-Fluorescence” value [2]?
A: Its value is 0 (ThT-inactive (N-Fold <2)).

Q: What about the “b -sheet / %” value [3] of the same sequence?
A: The value was 46.6563%.

Q: With QCKAKAQA as the sequence, how does the Rel-EFC [1] read?
A: The Rel-EFC was 0,03.

Q: And the “Log10 Infection Rel EFC” value [1]?
A: Its value is -1,6.

Q: What about the “Log Infectivity” value [1] of the same sequence?
A: Its value is -1.598.

Q: What about the “Log10 Infection Rel EF-C” value [1, 4] of the same sequence?
A: Its value is -1.6.

Q: What about the “Log10 Infection Rel EF-C” value [1, 5] of the same sequence?
A: Its value is -1.598.

Q: And the “Log10 Infection Rel EF-C” value [1, 6]?
A: Its value is -1.598.

Q: And the “Abs. Inf.” value [1]?
A: The value was 806.7.

Q: And the “Log10 Inf. rel. to EF-C” value [1]?
A: Its value is -1.598.

Q: And the “Tht category (> 2 to blank = +)” value ([2]; Fig S10 panel D)?
A: Its value is 0 (ThT-inactive (N-Fold <2)).

Q: And the “Tht category (> 2 to blank = +)” value ([2]; FigS12 panel A)?
A: The value was 0 (ThT-inactive (N-Fold <2)).

Q: What about the “ThT Cat,” value ([2]; FigS12 panel B) of the same sequence?
A: Its value is 0 (ThT-inactive (N-Fold <2)).

Q: What about the “ThT Cat,” value ([2]; ThT category, 1 if Rel. ThT >2) of the same sequence?
A: The value was 0 (ThT-inactive (N-Fold <2)).

Q: What about the “ThT Cat.” value ([2]; ThT category, 1 if Rel. ThT >2) of the same sequence?
A: Its value is 0 (ThT-inactive (N-Fold <2)).

Q: What about the “ThT Cat. / ThT-Fluorescence” value [2] of the same sequence?
A: The value was 0 (ThT-inactive (N-Fold <2)).

Q: What about the “b -sheet / %” value [3] of the same sequence?
A: Its value is 34.06%.
